According to paper PMC3861733 (Molecular & Cellular Proteomics : MCP, 2013):

T1: Saci-PP2A (Sulfolobus acidocaldarius, UniProt Q4JAD1)
T1 sequence (Q4JAD1 1-293): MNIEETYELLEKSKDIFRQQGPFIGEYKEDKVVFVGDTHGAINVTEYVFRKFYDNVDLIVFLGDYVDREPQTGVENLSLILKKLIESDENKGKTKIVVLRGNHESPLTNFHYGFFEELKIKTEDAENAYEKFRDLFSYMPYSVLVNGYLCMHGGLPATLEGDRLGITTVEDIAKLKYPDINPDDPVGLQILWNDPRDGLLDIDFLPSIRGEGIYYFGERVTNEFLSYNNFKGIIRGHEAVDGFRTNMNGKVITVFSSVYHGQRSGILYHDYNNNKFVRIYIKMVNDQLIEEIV


Experiments:
Saci-PP2A = target: T1, Saci-PP2A; test: malachite green phosphate release assay, inhibition; format: biochemical; conditions: read-out: % activity at 10 nM
purified protein = substrate: O=[N+]([O-])c1ccc(OP(=O)(O)O)cc1; test: purified protein; format: biochemical, Sulfolobus acidocaldarius; conditions: 0.1 M HEPES/KOH pH 6.5, 70 °C, substrate inhibition above 2 mM

Molecule	activity at 0.01 µM (Saci-PP2A) [%]	Vmax (purified protein) [µmol/min/mg]
C=C1[C@@H](O)[C@@H]2O[C@]3(CC[C@H](/C=C/[C@@H](C)[C@@H]4CC(C)=C[C@@]5(O[C@H](C[C@@](C)(O)C(=O)O)CC[C@H]5O)O4)O3)CC[C@H]2O[C@@H]1[C@@H](O)C[C@H](C)[C@H]1O[C@@]2(CCCCO2)CC[C@H]1C [okadaic acid]	56	–
Saci-PTP (Sulfolobus acidocaldarius DSM 639) (protein) MYWVKKHVIGGSAIPYTQDEIIGWINEGVKRVLVLPEEFEIDEAWGSLEYYISVLKSFNIEYLYSPIPDGRAPSENQFLEIYKWLRKDKGNLVHCVGGIGRTGTILASYLVLEENMSAEEAIEEVRRVRPGAVQTYEQELFVFKVEKMKDKWKIL	–	3.7
